The target in experiment [1] is T1, WT Nav1.5-α subunits (Homo sapiens, UniProt Q14524).
T1 construct: expressed in transfected cells; host or cells: HEK293 (transient transfection)
Briefly: Whole-cell patch clamp, single voltage-pulse protocol (peak INa, conductance, fast inactivation) in transiently transfected HEK293 cells. Format: cell-based. The conditions noted are these: for Peak INa −20 mV: normalized peak INa, 37° C.; for Peak INa Slope: Hill curve slope; for IC50: Hill curve. How it is done:
(§1) In one set of studies, we used a whole-cell patch clamp technique with single voltage-pulse protocols (FIGS. 3A-B) to characterize compounds ZINC38767171, ZINC39699427, ZINC40014265, ZINC64470729, ZINC64470737 and ZINC64470745. Whole-cell patch clamp was performed in extracellular solution containing (in mM): 140 NaCl, 4 KCl, 2 CaCl2, 1 MgCl2, and 10 HEPES (pH 7.4 adjusted with CsOH). The intracellular pipettes were dipped in dental wax and thermally polished to attain a resistance of 1.0-1.5 MΩ. The intracellular solutions contained (in mM): 130 CsF, 10 NaCl, 10 HEPES, and 10 EGTA titrated to pH 7.4. The six compounds, ZINC38767171, ZINC39699427, ZINC40014265, ZINC64470729, ZINC64470737 and ZINC64470745, chosen for electrophysiology characterization, ordered from MolPort (Easy compound ordering services), were diluted to 10 μM, 50 μM, and 100 μM in extracellular solution for biophysical assessment of channel gating.
(§2) The six compounds were screened against wild type (WT) Nav1.5-α subunits at the optimal physiological temperature of 37° C. Human Embryonic Kidney (HEK293) cells were transfected with WT Nav1.5-α subunits (transient transfections). The α subunits were co-expressed with the β1 subunit and eGFP (enhanced green fluorescence protein) in a 2:1:2 ratio, respectively.
Conductance was measured by a protocol that depolarized the membrane from −100 mV to +80 mV in increments of +5 mV for 19 ms. Prior to the test pulse, channels were allowed to recover from fast inactivation at −130 mV for 197 ms. The tested compounds had no effect on the conductance midpoint (FIGS. 6A-F).
At voltages greater than −50 mV, the fast inactivation T values were calculated from the mono-exponential fit to the decay of sodium current.
A general note: In patch-clamp work, channel activity is measured electrically.

Experiment [2] has as its target T1, WT Nav1.5-α subunits. Briefly: Whole-cell patch clamp, use-dependence (slow inactivation) protocol at 6 Hz in transiently transfected HEK293 cells. The class given is cell-based. The conditions noted are these: for UDI Block Slope: Hill curve slope; for IC50: Hill curve, use-dependence at 6 Hz, read-out: UDI Block IC50. How it is done: as §1, §2
Slow inactivation (SI) was indirectly determined by measuring use-dependence, which is a physiologically-relevant protocol. The protocol includes a series of 500 110 ms depolarizing pulses to 0 mV followed by a 55 ms-90 mV recovery pulse at a frequency 6 Hz. With repetitive depolarizations, Nav1.5 channels accumulate into slow inactivation.

“Also recorded” adds a separate entry of the source.

T1 sequence (Q14524 whole entry): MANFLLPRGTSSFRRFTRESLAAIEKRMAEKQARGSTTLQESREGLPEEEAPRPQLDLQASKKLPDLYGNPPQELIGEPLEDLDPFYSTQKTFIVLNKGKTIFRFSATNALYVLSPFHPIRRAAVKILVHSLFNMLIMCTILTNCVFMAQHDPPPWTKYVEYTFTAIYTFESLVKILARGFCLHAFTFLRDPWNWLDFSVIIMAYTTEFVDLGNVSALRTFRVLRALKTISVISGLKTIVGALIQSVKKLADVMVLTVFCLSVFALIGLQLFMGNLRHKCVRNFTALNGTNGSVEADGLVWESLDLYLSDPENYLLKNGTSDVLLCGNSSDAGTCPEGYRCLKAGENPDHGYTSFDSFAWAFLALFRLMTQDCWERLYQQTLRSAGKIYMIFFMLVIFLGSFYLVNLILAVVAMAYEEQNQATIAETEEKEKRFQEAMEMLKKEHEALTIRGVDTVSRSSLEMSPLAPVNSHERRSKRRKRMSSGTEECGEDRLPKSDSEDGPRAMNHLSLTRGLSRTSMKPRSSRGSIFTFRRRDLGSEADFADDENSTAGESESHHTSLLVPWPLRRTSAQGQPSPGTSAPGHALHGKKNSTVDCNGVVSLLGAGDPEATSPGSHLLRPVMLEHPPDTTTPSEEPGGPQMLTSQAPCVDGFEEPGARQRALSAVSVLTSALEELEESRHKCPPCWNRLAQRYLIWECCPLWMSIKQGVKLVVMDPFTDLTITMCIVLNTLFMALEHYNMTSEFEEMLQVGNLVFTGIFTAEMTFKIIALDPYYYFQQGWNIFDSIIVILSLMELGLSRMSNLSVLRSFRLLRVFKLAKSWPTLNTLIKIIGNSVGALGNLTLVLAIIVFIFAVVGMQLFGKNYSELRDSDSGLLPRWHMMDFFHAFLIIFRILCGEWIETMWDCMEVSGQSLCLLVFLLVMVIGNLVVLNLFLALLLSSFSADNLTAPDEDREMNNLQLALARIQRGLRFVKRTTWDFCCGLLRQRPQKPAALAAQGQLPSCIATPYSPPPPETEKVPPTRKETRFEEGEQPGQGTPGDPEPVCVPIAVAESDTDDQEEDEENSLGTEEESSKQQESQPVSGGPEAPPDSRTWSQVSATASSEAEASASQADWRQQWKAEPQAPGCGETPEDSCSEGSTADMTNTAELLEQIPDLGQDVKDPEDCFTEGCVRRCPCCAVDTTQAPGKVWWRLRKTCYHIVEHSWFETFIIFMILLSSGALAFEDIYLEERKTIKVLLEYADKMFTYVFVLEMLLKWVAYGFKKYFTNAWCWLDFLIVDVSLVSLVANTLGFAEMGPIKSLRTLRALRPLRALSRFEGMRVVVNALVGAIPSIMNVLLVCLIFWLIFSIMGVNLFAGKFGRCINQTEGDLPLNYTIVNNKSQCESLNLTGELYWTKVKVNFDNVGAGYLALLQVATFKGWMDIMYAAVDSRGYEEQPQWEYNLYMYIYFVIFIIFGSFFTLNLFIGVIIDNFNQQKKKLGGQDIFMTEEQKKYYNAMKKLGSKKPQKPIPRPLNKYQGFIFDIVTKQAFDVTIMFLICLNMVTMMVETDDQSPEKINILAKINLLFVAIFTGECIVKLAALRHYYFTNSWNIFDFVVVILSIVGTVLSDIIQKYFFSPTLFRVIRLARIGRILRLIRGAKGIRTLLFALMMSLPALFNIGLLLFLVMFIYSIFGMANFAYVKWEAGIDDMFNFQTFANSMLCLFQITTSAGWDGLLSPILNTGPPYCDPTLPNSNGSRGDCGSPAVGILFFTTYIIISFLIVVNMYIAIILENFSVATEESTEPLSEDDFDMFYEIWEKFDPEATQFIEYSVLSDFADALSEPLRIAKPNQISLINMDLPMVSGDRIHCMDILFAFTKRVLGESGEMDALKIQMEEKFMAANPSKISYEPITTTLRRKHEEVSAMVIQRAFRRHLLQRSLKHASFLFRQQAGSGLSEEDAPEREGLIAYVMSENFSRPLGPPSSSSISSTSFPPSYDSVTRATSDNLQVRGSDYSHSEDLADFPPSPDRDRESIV

Consider `O=C1N=c2ccc(C(=O)NCc3ccco3)cc2=NC1=O` [ZINC38767171, N-(2-furylmethyl)-2,3-dioxo-quinoxaline-6-carboxamide], for which, at WT Nav1.5-α subunits [1] (10 μM), the “% Block −20 mV” value was −24.21%, the “fast inactivation onset time constant FI +10 mV” value was 0.25 ± 0.05 ms, the “fast inactivation onset time constant FI −10 mV” value was found to be 0.39 ± 0.06 ms and the “fast inactivation onset time constant FI −30 mV” value came to 0.71 ± 0.12 ms. At WT Nav1.5-α subunits [1] (10 μM), the “fast inactivation onset time constant FI −50 mV” value is listed as 1.70 ± 0.33 ms and the “Peak INa −20 mV” value is recorded as −0.72 ± 0.06. For the same compound, on WT Nav1.5-α subunits [1] (50 μM), the “% Block −20 mV” value is given as −37.89%, the “fast inactivation onset time constant FI +10 mV” value came to 0.34 ± 0.06 ms, the “fast inactivation onset time constant FI −10 mV” value turned out to be 0.58 ± 0.08 ms and the “fast inactivation onset time constant FI −30 mV” value was 0.94 ± 0.10 ms. On WT Nav1.5-α subunits [1] (50 μM), the “fast inactivation onset time constant FI −50 mV” value came to 1.79 ± 0.15 ms and the “Peak INa −20 mV” value is on record as −0.59 ± 0.11. Moreover, on WT Nav1.5-α subunits [1] (100 μM), the “% Block −20 mV” value is reported as −38.95%, the “fast inactivation onset time constant FI +10 mV” value is listed as 0.41 ± 0.11 ms, the “fast inactivation onset time constant FI −10 mV” value was 0.60 ± 0.13 ms and the “fast inactivation onset time constant FI −30 mV” value worked out at 1.05 ± 0.21 ms. Besides, at WT Nav1.5-α subunits [1] (100 μM), the “fast inactivation onset time constant FI −50 mV” value is 1.92 ± 0.38 ms and the “Peak INa −20 mV” value is −0.58 ± 0.10. The “Peak INa Slope” value at WT Nav1.5-α subunits [1] is 1.697. Further, it took 7.61 µM to reach half-maximal inhibition on WT Nav1.5-α subunits [1] (single voltage-pulse protocol) (IC50). The “effect on fast inactivation kinetics” value on WT Nav1.5-α subunits [1] (open-state voltages between −30 and +10 mV) was “significantly decelerated; also recorded: decelerate fast inactivation kinetics, but not significantly”. On WT Nav1.5-α subunits [2], the “UDI Block Slope” value was found to be 3.161 and the IC50 – broadly, the concentration needed to halve the response being measured – stood at 0.251 µM.

As for `C=CCNS(=O)(=O)c1ccc2c(c1)=NC(=O)N=2` [ZINC39699427, N-allyl-2-oxo-benzimidazole-5-sulfonamide], on WT Nav1.5-α subunits [1] (10 μM), the “% Block −20 mV” value is −34.00%, the “fast inactivation onset time constant FI +10 mV” value was found to be 0.21 ± 0.03 ms, the “fast inactivation onset time constant FI −10 mV” value stood at 0.31 ± 0.04 ms and the “fast inactivation onset time constant FI −30 mV” value came to 0.54 ± 0.09 ms. On WT Nav1.5-α subunits [1] (10 μM), the “fast inactivation onset time constant FI −50 mV” value amounted to 1.32 ± 0.24 ms and the “Peak INa −20 mV” value is −0.66 ± 0.04. At WT Nav1.5-α subunits [1] (50 μM), the “% Block −20 mV” value is −42.00%, the “fast inactivation onset time constant FI +10 mV” value is on record as 0.25 ± 0.03 ms, the “fast inactivation onset time constant FI −10 mV” value was determined as 0.35 ± 0.04 ms and the “fast inactivation onset time constant FI −30 mV” value came out at 0.63 ± 0.08 ms. Besides, on WT Nav1.5-α subunits [1] (50 μM), the “fast inactivation onset time constant FI −50 mV” value was 1.46 ± 0.09 ms and the “Peak INa −20 mV” value was −0.58 ± 0.06. Also, on WT Nav1.5-α subunits [1] (100 μM), the “% Block −20 mV” value was −47.00%, the “fast inactivation onset time constant FI +10 mV” value worked out at 0.26 ± 0.02 ms, the “fast inactivation onset time constant FI −10 mV” value is given as 0.40 ± 0.03 ms and the “fast inactivation onset time constant FI −30 mV” value is 0.72 ± 0.04 ms. Besides, at WT Nav1.5-α subunits [1] (100 μM), the “fast inactivation onset time constant FI −50 mV” value turned out to be 1.61 ± 0.18 ms and the “Peak INa −20 mV” value is reported as −0.53 ± 0.07. Besides, the “Peak INa Slope” value on WT Nav1.5-α subunits [1] was determined as 0.236. On WT Nav1.5-α subunits [1] (single voltage-pulse protocol), inhibition was half-maximal at 6.45 µM (IC50) and the “effect on peak INa” value is given as “considerably blocked peak INa at low concentrations”. In addition, on WT Nav1.5-α subunits [2] (6 Hz), the effect on use-dependence entry is reported as “significantly increases”. Besides, at WT Nav1.5-α subunits [2], the “UDI Block Slope” value stood at 4.556 and the IC50 was 0.196 µM.

For the origin of these results see patent publication US20220125784A1, “METHODS AND COMPOUNDS FOR INHIBITION OF INACTIVATION OF VOLTAGE-GATED SODIUM CHANNELS” (SIMON FRASER UNIVERSITY, priority 2019, published 2022).
